Structure (SMILES)	melting point [°C]
O=C(CCC(=O)N1CCC(c2ccc(Cl)cc2)CC1)c1ccc2c(c1)CCN(CCn1cccc1)CC2	96 to 97
O=c1[nH]c2cc(C(F)(F)F)c([N+](=O)[O-])cc2n1-c1cc(Cl)cc(Br)c1O	262 to 264
COc1cc(Nc2c(C#N)cnc3cc(-c4ccc(CN5CCC(O)CC5)cc4)sc23)c(Cl)cc1Cl	149 to 150
COCSc1nccn1-c1cccc(C(=O)CC(=O)Nc2cc(-c3ccccc3F)ccc2NC(=O)OC(C)(C)C)c1	83 to 86
Cc1c(O)cc2c(c1C)N(C=O)C(C)C2 (stereo not given)	155 to 159
OCCn1ccc(NC(=S)NCC(F)(F)F)n1	145 to 146
CCOc1ccc2c(c1)n(C1CCCCC1)c(=O)n2S(=O)(=O)c1ccc(N(C)C)cc1OC	220
Oc1ccc(C2=CCN(CCCN3CCOCC3)CC2)cc1	166 to 168
CC(=O)Nc1ccc2c(c1)CN(C)CC2	157 to 159
O=C1OC(=O)c2cc3cccc([N+](=O)[O-])c3c3cccc1c23	246
CC1Cc2cccc(S(=O)(=O)NC(C)(C)C)c2S1 (stereo not given)	97 to 98
CCCOc1c(Cl)cc(Cl)c2c(=O)c3ccccc3sc12	104 to 105
COc1cc2c(cc1-c1c(C)nn(C)c1C)-c1c(-c3cccs3)c3c(n1CC2)C(=O)N(C(C)C)CCN(C(C)=O)C3	178 to 180
Nc1ncnc2c1c(-c1ccccc1)cn2-c1cccc(O)c1	227 to 228
COc1c(OC)c(O)c2c(=O)c3ccc(O)c(OC)c3[nH]c2c1OC	214 to 215
O=C1N(O)CCC12CCOc1ccc(F)cc12 (stereo not given)	208 to 209
CCOC(=O)C1=C(C)Nc2n[nH]cc2C1c1cccc2nonc12 (stereo not given)	228
COc1cc(C2C3=C(COC3=O)N(C)c3cc4c(cc32)OCO4)cc(OC)c1O (stereo not given)	250

Structure (SMILES)	melting point [°C]
CCCCC[C@H]1CC[C@H](CC[C@H]2CC[C@H](C#N)CC2)CC1	56.3
CN(C)S(=O)(=O)c1cccc(Cl)n1	53 to 55
O=C(Nc1cccc2c(-n3ccnc3)c(Br)cnc12)c1c(-n2ccnc2)cccc1-n1ccnc1	175 to 185
CC(C)(C)OC(=O)Nc1cc(N2CCC(OC3CCCCO3)C2)c(-c2ccc(F)cc2)cc1NC(=O)CC(=O)c1cccc(-n2ccnc2)c1 (stereo not given)	99 to 103
O=c1cc2c(nn1-c1ccc(Cl)cc1)-c1cc(Br)sc1SCC2	148 to 151
CCN=C(NC(=O)OC(C)(C)C)Nc1cc(C(C)c2ccc(-c3ccccc3)c(F)c2)no1 (stereo not given)	87 to 92
CCCc1nc2c(N)nc3ccccc3c2n1CCC(OCC)OCC	148 to 150
COc1ncc(-c2cc(N3CCOCC3)nc(-n3c(C(F)F)nc4c(OC)cccc43)n2)cn1	238 to 241
COC(=O)c1cccc(S(=O)(=O)N(C)C)c1CS(=O)(=O)NC(=O)Nc1nc(OC)cc(OC)n1	175 to 180
CCCc1c(C(=O)C(C)C)c2ccc(C(=O)OC)cc2n1Cc1ccccc1OC	103 to 105
CCCCCCc1cc2c(s1)NC(=O)CN=C2c1ccccc1OC	130 to 132
CCCCCCCCCCCCCCC1COC2(CC(c3ccccc3)NC(c3ccccc3)C2)O1 (stereo not given)	63 to 70
CCN(CC)c1ccc(N=c2scc(-c3ccc(Cl)c(S(=O)(=O)N(C)C)c3)n2C)cc1	184 to 185
CC(C)[C@H](O)CP(=O)(O)CCCN	187 to 189
N/C(=C1/Sc2ccccc2C1=O)c1ccccc1N	186 to 187
CCCc1c(S)ccc2c(C)c(CC(=O)OC)c(=O)oc12	131 to 132
COc1cc2c(cc1N1CCN(C)CC1)N(C(=O)c1ccc(-c3ccc(-c4noc(C)n4)cc3C)cc1)CC2	213 to 214

Second part, the molecule after the results:

melting point [°C]	Structure (SMILES)
280 to 282	N#CC(C(=O)Nc1ccccc1)C(=O)c1nn(-c2ccccc2)c2c1COc1ccccc1-2 (stereo not given)
80 to 81	COc1ccc(-c2c(C#N)ccnc2SC)cc1
113 to 115	O=C(CCc1cc(C2CCCCC2)c(O)c(C2CCCCC2)c1)OCCCCCCOC(=O)CCc1cc(C2CCCCC2)c(O)c(C2CCCCC2)c1
177 to 181	CC(C)(Oc1ccc(Cl)cc1)C(=O)N1[C@@H](C(=O)O)C(C)(C)S[C@H]1c1ccccc1
84 to 86	CCCOC(C(=O)O)c1ccc2c(c1)C(C)(C)CCC2(C)C (racemic)
144 to 145	CC(C)(OCc1coc(-c2ccc(Cl)cc2)n1)C(=O)O
86 to 88	C=CCc1cc2c(c(CC=C)c1O)NC(=O)CC2
94 to 95	C(=C\c1nc(COc2ccc(CCCCn3cncn3)cc2)co1)/c1ccccc1
209 to 211	O=C(O)c1cc(-n2c(-c3ccccc3)cc3c2CCCC3)ccc1O
76 to 78	COc1ccc(C(=O)c2ccc(CBr)cc2)cc1
98.5 to 100	CCCN(CCC)c1c(CC)nn2c(-c3cnc(N(C)C)cc3C)cccc12
124 to 125	Sc1nncn1Cc1ccccc1
162 to 163	Cc1c(C=NO)c2cc(F)ccc2n1-c1ccc(O)cc1
195 to 197	Cc1[nH]n(-c2c(Cl)cc(C(F)(F)F)cc2Cl)c(=O)c1C=O
291	Cn1ncc2[nH]c3ccc(Cc4ccc(C#N)cc4)cc3c(=O)c21
143 to 144	CC(C)C[C@H](CC(=O)OC(C)(C)C)C(=O)N1C(=O)OC[C@@H]1C(C)C
192 to 194	COc1ccc(C(=CC(=O)N2CCOCC2)c2ccc(CC(=O)O)cc2)cc1OC
132 to 135	COc1ccc(C(Cc2ccccc2)=NO)cc1

melting point [°C]	Structure (SMILES)
63 to 65	CCCc1ccc(-c2ccn([C@H](CC(=O)OCc3ccccc3)C(=O)N[C@H](C(=O)NC)C(C)(C)C)c2)cc1
233 to 236	CSc1cnc2c(C)c(C)sc2c1O
155 to 156	NC(=O)CNC(=O)c1cccc(-c2cccc3cc(Cc4cccc(CO)c4)sc23)c1
195 to 196	NS(=O)(=O)c1ccc(S(=O)(=O)N2CCC(=O)CC2)cc1Cl
89 to 90	CCOC(=O)c1cc2c(Cl)ccc3c2n1CCCC=C3
106 to 114	CCC(Oc1cc(Cl)cc(Cl)c1Cl)C(=O)O (stereo not given)
70 to 80	COc1ccc(C2(Oc3c(F)c(F)c(F)c(F)c3F)CCN(C)CC2)cc1
65 to 66.5	Cc1c(OCc2ccc(F)cc2)cnn(C(C)(C)C)c1=O
203	CNC(=O)NCCN1CCC(Nc2nc3ccccc3n2Cc2cnc(C)o2)CC1
231 to 234	Cc1ccc(S(=O)(=O)c2nsc3nc4ccccc4n23)cc1
115 to 116	CCCCCCNC(=O)[C@@H](NC(=O)[C@H](CC(C)C)NC(=O)OC(C)(C)C)C(C)C
120 to 121	CCOC(=O)c1cnc2c(OC)cccc2c1Nc1ccccc1
260	O=C(NC(Cc1ccc(NCc2ccccc2)cc1)C(=O)O)c1cn2cc(-c3ccc(Cl)cc3)ccc2n1 (stereo not given)
159 to 160	CN(C)Cc1ccc(CNCCN2CCNC2=C(C#N)C#N)o1
68 to 69	Cc1ccc(S(=O)(=O)Oc2ccc(CN3CCOCC3)nc2)cc1
175 to 176	Cc1cccc(C)c1NC(=O)CN1CCN(CC(O)C2COc3ccccc3O2)CC1 (stereo not given)
92 to 94	O=S(Cc1ccccn1)c1ccc(F)cc1 (stereo not given)

Reference: a melting point compilation (Tetko et al.; mined from patent text by program, amines drawn as free bases though some values may be those of a salt)
